Key:
[1] = Solubility in 70% ethanol at 10°C
Description: A group of eight male mice aged 8 weeks of C3H series with a body weight of 18 to 24g was subjected to depilation at a back portion thereof in a size of about 2× 3.5 cm. Then, each of the N-acylamino acid compounds as shown in Table 1 was dissolved in ethanol to a concentration of 1% by weight as a sample to be tested. Then 0.1 mℓ of the sample were applied to the depilated back portions of the mice once a day over a period of 3 weeks to visually observe the hair growth state. An evaluation was made of the hair growth effect by visually observing the state of trichogenous promotion in comparison with the back portions coated only with ethanol on the basis of the criterion in Table 1.

[2] = tested on: male mice aged 8 weeks of C3H series; experiment: Hair growth (retrichogenous) test on depilated backs of mice, visual observation versus ethanol only; type: in vivo; design: key: ⓞ: rapid and excellent retrichogenous action; ○: rapid and good retrichogenous action; Δ: slow and slight retrichogenous action; conditions: 1% by weight in ethanol, 0.1 mℓ applied to depilated back once a day over 3 weeks; visual comparison with ethanol only
From the text: The results are given also in Table 1. […] Table 1

| Compound | Solubility (w/w %) [1] [w/w %] | Retrichogenous effect [2] |
| --- | --- | --- |
| CCCCCCCCCCCCCCC(=O)N[C@@H](C)C(=O)O [Comp. Example 1, N-PDNY-L-alanine] | 0.8 | ⓞ |
| CCCCCCCCCCCCCCC(=O)N[C@@H](CC(C)C)C(=O)O [Comp. Example 2, N-PDNY-L-leucine] | 2.1 | ⓞ |
| CCCCCCCCCCCCCCC(=O)N[C@@H](CCSC)C(=O)O [Comp. Example 3, N-PDNY-L-methionine] | – | ⓞ |
| CCCCCCCCCCCCCCC(=O)N[C@@H](Cc1ccc(O)cc1)C(=O)O [Comp. Example 6, N-PDNY-L-tyrosine] | 0.7 | ⓞ |
| CCCCCCCCCCCCCCC(=O)N[C@@H](CC(=O)O)C(=O)O [Comp. Example 7, N-PDNY-L-asparatic acid] | 0.3 | ○ |
| CCCCCCCCCCCCCCC(=O)N[C@@H](Cc1ccccc1)C(=O)O [Comp. Example 5, N-PDNY-L-phenyl-alanine] | 3.7 | ⓞ |
| CCCCCCCCCCCCCCC(=O)N[C@H](C(=O)O)[C@@H](C)CC [Example 1, N-pentadecanoyl-L-isoleucine] | 4.0 | ⓞ |
| CCCCCCCCCCCCCCC(=O)N[C@H](C(=O)O)C(C)C [Comp. Example 4, N-PDNY-L-valine] | 2.5 | ⓞ |

Source: patent EP0891764B1, “Ethanolic solutions of N-pentadecanoylisoleucine and use thereof in cosmetics” (KASHIMA OIL COMPANY, priority 1997, dated 1999)
